Experimental findings from patent publication US20100184815A1 (priority 2008, published 2010) are described below.

Where two headings read alike, the source gives them in different places.

The target of one data set is T1, Gal-4 hPPARα (Homo sapiens, UniProt Q07869).
T1 construct: Plasmids pGal4-hPPARα, pGal4-hPPARγ, pGal4-hPPARδ and pG5-TK-pGL3 were constructed as previously described by Staels, Bart, et al., Nature 1998 Jun; 25
T1 sequence (Q07869 200-468 limits assumed): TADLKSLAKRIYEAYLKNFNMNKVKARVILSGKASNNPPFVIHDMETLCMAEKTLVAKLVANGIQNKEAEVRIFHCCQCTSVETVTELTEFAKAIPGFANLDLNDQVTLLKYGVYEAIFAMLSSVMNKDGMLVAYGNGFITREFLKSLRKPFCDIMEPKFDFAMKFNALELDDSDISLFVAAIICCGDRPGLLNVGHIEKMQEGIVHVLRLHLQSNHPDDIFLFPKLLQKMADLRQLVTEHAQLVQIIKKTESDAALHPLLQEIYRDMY
Briefly: Gal4-hPPARα transient transfection reporter assay in Cos cells. The data set is classed as cell-based. Conditions: luciferase reporter, 24 hours with compound, scale 1-5, read-out: Gal-4 hPPAR α EC50 (scaled number). An outline of the steps: (§1)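 Cos cells transiently co-transfected with Gal4-hPPAR expression plasmid, pG5-TK-pGL3 luciferase reporter and β-galactosidase control, then treated 24 h with increasing compound concentrations in DMEM containing 0.2% FCS. Luciferase normalised to β-galactosidase; EC50 from curve fit, at least three experiments.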
On the technique in general: Reporter assays use an easily measured gene product as a stand-in for the process of interest.

The next data set addresses T2, Gal-4 hPPARγ (Homo sapiens, UniProt P37231).
T2 construct: Plasmids pGal4-hPPARα, pGal4-hPPARγ, pGal4-hPPARδ and pG5-TK-pGL3 were constructed as previously described by Staels, Bart, et al., Nature 1998 Jun; 25
T2 sequence (P37231 238-505 limits assumed): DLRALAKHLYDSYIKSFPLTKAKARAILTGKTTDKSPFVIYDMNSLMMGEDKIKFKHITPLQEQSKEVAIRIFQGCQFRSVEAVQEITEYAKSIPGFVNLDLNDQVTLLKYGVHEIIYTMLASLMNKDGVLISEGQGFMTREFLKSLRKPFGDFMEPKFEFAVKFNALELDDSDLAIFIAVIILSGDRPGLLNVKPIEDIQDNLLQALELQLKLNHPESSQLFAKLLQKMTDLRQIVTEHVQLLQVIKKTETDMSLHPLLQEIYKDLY
Put plainly: Gal4-hPPARγ transient transfection reporter assay in Cos cells. The data set is classed as cell-based. As to conditions: luciferase reporter, 24 hours with compound, scale 1-5, read-out: Gal-4 hPPAR γ EC50 (scaled number). An outline of the steps:
as §1

In a further data set the target is T3, Full Length hPPARα (Homo sapiens, UniProt Q07869).
T3 construct: Full Length; expressed in transfected cells; host or cells: Cos cells
T3 sequence (Q07869 1-468): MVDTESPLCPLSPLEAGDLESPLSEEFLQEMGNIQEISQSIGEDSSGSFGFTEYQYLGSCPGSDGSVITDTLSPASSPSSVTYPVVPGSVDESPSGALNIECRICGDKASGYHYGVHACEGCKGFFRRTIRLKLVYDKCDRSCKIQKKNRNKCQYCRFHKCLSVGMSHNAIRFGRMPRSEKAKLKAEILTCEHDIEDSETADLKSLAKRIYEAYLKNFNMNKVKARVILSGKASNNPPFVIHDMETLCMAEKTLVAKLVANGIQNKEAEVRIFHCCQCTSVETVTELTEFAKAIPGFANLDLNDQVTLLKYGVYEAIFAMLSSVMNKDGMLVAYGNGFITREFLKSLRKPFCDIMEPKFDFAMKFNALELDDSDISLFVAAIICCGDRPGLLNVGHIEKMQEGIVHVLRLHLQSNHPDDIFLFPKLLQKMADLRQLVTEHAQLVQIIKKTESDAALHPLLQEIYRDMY
Briefly: Full length hPPARα transfection assay. The data set is classed as cell-based. Conditions: full length receptor; read-out: Full Length hPPAR α EC50 (scaled number). As to the method:
Transient transfection assays. Cos cells were seeded in 60-mm dishes at a density of 5.5×10^5 cells/dish in Dulbecco's modified Eagle's medium (DMEM) supplemented with 10% fetal calf serum (FCS) and incubated at 37° C. for 24 hours before transfection. Cells were transfected in Opti-MEM (Gibco; Invitrogen, Carlsbad, Calif.) without FCS for 3 hours at 37° C., using polyethylenimine, with reporter and expression plasmids. The plasmid pBluescript (Stratagene, La Jolla, Calif.) was used as carrier DNA to set the final amount of DNA to 5.5 μg/dish. The pCMV-b-galactosidase expression plasmid was cotransfected as a control for transfection efficiency. Transfection was stopped by the addition of DMEM supplemented with 10% FCS, and cells were then incubated at 37° C. After 16 hours, cells were trypsinized and seeded in 96-well plates at the density of 2×10^4 cells/well and incubated for 6 hours in 10% FCS-containing DMEM. Cells were then incubated for 24 hours in DMEM containing 0.2% FCS and increasing concentrations of the compound tested or vehicle (DMSO). At the end of the experiment, cells were washed once with ice-cold PBS, lysed and the luciferase and b-galactosidase assays were performed in a luminometer and spectrophotomer. Transfection efficiencies were normalized with the b-galactosidase activity assay. Half-maximal effective concentration (EC50) was estimated using Prism software (GraphPad). All transfection experiments were performed at least three times.
In the following tables, proprietary compound EC50 values for hPPAR α, β, δ and γ are shown. The EC50 value is the concentration of a drug that induces a response halfway between the baseline and maximum, and is commonly used as a measure of drug potency. EC50 values are reported on a scale of 1 through 5, wherein the value scale is defined for each receptor as follows: […]

The target in the next data set is T4, Gal-4 hPPARβ/δ (Homo sapiens, UniProt Q03181).
T4 construct: Plasmids pGal4-hPPARα, pGal4-hPPARγ, pGal4-hPPARδ and pG5-TK-pGL3 were constructed as previously described by Staels, Bart, et al., Nature 1998 Jun; 25
T4 sequence (Q03181 171-441 limits assumed): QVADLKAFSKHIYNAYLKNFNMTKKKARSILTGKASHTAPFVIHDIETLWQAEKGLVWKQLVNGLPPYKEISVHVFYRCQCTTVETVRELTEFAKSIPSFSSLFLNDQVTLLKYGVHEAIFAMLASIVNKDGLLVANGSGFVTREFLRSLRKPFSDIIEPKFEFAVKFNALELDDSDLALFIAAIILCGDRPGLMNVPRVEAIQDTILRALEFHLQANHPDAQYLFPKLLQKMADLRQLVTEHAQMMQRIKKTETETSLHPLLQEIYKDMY
Put plainly: Gal4-hPPARδ transient transfection reporter assay in Cos cells. The data set is classed as cell-based. As to conditions: luciferase reporter, 24 hours with compound, scale 1-5, read-out: Gal-4 hPPAR β/δ EC50 (scaled number). In short, it runs like this: as §1

Data set [1] in a line: Metabolism studies using human liver microsomal preparations. The data set is classed as in vitro ADME. As to conditions: pooled human liver microsomes, with NADPH (CYP system active), 37° C. As to the method: Compounds were incubated in pooled human liver microsomes (HLMs) in the presence or absence of an NADPH-generating system. NADPH is required for the activity of cytochrome P450 (CYP) and other oxidative enzymes present in HLMs, but not for esterase activity. An additional incubation was carried out in the absence of HLM to assess compound stability. The disappearance of parent and the appearance of the corresponding acid metabolite were monitored over the time course of the incubations using LC-MS/MS.
A stock solution (20 mM) of each proprietary compound in DMSO was prepared and store at −20° C. until needed. A working stock solution (0.2 mM) was prepared for each proprietary compound by adding an aliquot of the stock solution (10 μL) to acetonitrile (990 μL).
An aliquot of the HLM solution was removed from the −80° C. freezer and placed on ice. Tris Buffer (50 mM, pH 7.4) containing MgCl2 (hexahydrate, 5 mM) was pre-incubated in a 37° C. water bath. A set of Eppendorf microfuge tubes (1.5 mL) was appropriately labeled. To each tube was added Tris buffer with or without the NADPH generating system. An aliquot of pooled HLMs was added to all the incubations except those that were the buffer control.
Tubes were preincubated for 5 min in a shaking incubator bath (37° C., 900 rpm) and the reaction was initiated by adding an aliquot of the proprietary working solution (5 μL). The additions were timed carefully in order to coordinate the sample collections below. A small aliquot (50 μL) was removed at […] and delivered to the respective tubes containing dextrorphan (100 μL of 0.5 μg/mL solution) in dissolved in methanol or acetonitrile. The samples were centrifuged at 14000 g for 15 minutes at 4° C. The supernatant was transferred to clean labeled HPLC injection vials and stored at −80° C. until analyzed. An aliquot of the supernatant […] was added to water (75 μL), mixed and injected onto the LC-MS/MS system for analysis.
“HLM t1/2” represents the observed half life of the compound under conditions that included NADPH, i.e., the CYP system was active. Comparison to the half life of the test article under (−)NADPH conditions, the enzyme predominant ly responsible for the metabolism of the test article. […] Where roughly equal metabolism is seen by each enzyme system, “mixed” is noted in the “Predominant enzyme” column.
(Liver microsomes are vesicles of endoplasmic reticulum, rich in cytochrome P450 enzymes.)

For another data set, the system named is pig liver esterase. Briefly: Metabolism studies using pig liver esterase. The data set is classed as in vitro ADME. Conditions: 37° C. The method, then:
The esterase-mediated metabolism of these compounds was studied using commercially available pig liver esterase in the presence and absence of human plasma proteins. The disappearance of parent was monitored over the time course of the incubations using a LC-UV detection system.
A stock solution and working stock solution was prepared for each proprietary compound as described for the human liver microsomal incubations. Working solutions of pig liver esterase in potassium phosphate buffer ([…], pH 7.4) and pig liver esterase in human plasma protein were prepared by dissolving pig liver esterase (2.51 mg) in the phosphate buffer or plasma protein solutions, respectively.
A set of three Eppendorf microfuge tubes (1.5 mL) was appropriately labeled. To each tube was added 1.5 mL of phosphate buffer, pig liver esterase in buffer, or pig liver esterase in human plasma protein solution. These solutions were pre-incubated (37° C., 900 rpm) and the reactions were initiated by adding an aliquot (37.5 μL) of the working solution of proprietary compound to each tube. An aliquot (100 μL) from each tube was removed at time 0, 5, 30, 60, and 120 min and added to a tube containing acetonitrile (200 μL) to stop the reaction.
The samples were centrifuged at 14000 g for 15 minutes at 4° C. The supernatant was transferred to clean labeled HPLC injection vials and stored at −80° C. until analyzed. An aliquot of the supernatant (25 μL) was injected onto the LC-UV system for analysis.
Half lives of a sample of test articles is noted in the following table. Half life was determined in the presence or absence of plasma.

[2] abbreviates: pig liver esterase in human plasma protein solution, read-out: Pig Liver Esterase (t1/2 min.) (+) Plasma.
Setting [3] is: pig liver esterase in phosphate buffer pH 7.4, no plasma, read-out: Pig Liver Esterase (t1/2 min.) (−) Plasma.

`CC(C)(Sc1ccc(C(=O)OCCn2cc(-c3ccc(C(C)(C)C)cc3)nn2)cc1)C(=O)O` [Compound 89, 2-(4-((2-(4-(4-tert-butylphenyl)-1H-1,2,3-triazol-1-yl)ethoxy)carbonyl)phenylthio)-2-methylpropanoic acid]: the EC50 is 51 to 200 nM at Gal-4 hPPARα, above 1000 nM at Gal-4 hPPARγ, 1 to 50 nM on Full Length hPPARα and above 1000 nM on Gal-4 hPPARβ/δ.

In the case of `CCCn1c([C@H](C)OC(=O)c2ccc(SC(C)(C)C(=O)O)cc2)nn(Cc2ccc(C)cc2)c1=O` [Compound 248, 4-(1-Carboxy-1-methyl-ethylsulfanyl)-benzoic acid (S)-1-[1-(4-methyl-benzyl)-5-oxo-4-propyl-4,5-dihydro-1H-1,2,4-triazol-3-yl]-ethyl ester], the EC50 on Gal-4 hPPARα is 51 to 200 nM; on Gal-4 hPPARγ, above 1000 nM; on Gal-4 hPPARβ/δ, above 1000 nM. Besides, in data set [1], the “HLMs t1/2 (min)” value is “Stable”. Further, the half-life at 4.9 µM with pig liver esterase (setting [2]) and with pig liver esterase (setting [3]) was above 2 h throughout.

For `Cc1ccc(Cn2nncc2COC(=O)c2ccc(SC(C)(C)C(=O)O)cc2)cc1` [Compound 62, 2-methyl-2-(4-(((1-(4-methylbenzyl)-1H-1,2,3-triazol-5-yl)methoxy)carbonyl)phenylthio)propanoic acid], the EC50 on Gal-4 hPPARα is 51 to 200 nM; at Gal-4 hPPARγ, above 1000 nM; on Full Length hPPARα, 51 to 200 nM; at Gal-4 hPPARβ/δ, above 1000 nM.

For the compound `C[C@@H](OC(=O)c1ccc(SC(C)(C)C(=O)O)cc1)c1cn(Cc2ccc(C(F)(F)F)cc2)nn1` [Compound 95, (R)-2-methyl-2-(4-((1-(1-(4-(trifluoromethyl)benzyl)-1H-1,2,3-triazol-4-yl)ethoxy)carbonyl)phenylthio)propanoic acid], the EC50 on Gal-4 hPPARα is 1 to 50 nM; on Gal-4 hPPARγ, above 1000 nM; on Gal-4 hPPARβ/δ, above 1000 nM. In addition, the “HLMs t1/2 (min)” value in data set [1] is listed as “Stable”. The values for the half-life at 4.9 µM with pig liver esterase (setting [2]) and in the data set on pig liver esterase (setting [3]) were above 2 h and 1.13 h, respectively.

With `Cn1nc(-c2ccccc2)cc1COC(=O)c1ccc(OC(C)(C)C(=O)O)cc1` [Compound 2, 2-methyl-2-(4-(((1-methyl-3-phenyl-1H-pyrazol-5-yl)methoxy)carbonyl)phenoxy)propanoic acid], the EC50 at Gal-4 hPPARα is 201 to 999 nM; at Gal-4 hPPARγ, above 1000 nM; at Full Length hPPARα it was 1 to 50 nM; on Gal-4 hPPARβ/δ, above 1000 nM.

Regarding `CCCn1c([C@@H](C)OC(=O)c2ccc(SC(C)(C)C(=O)O)cc2)nn(Cc2ccc(C)cc2)c1=O` [Compound 249, 4-(1-Carboxy-1-methyl-ethylsulfanyl)-benzoic acid (R)-1-[1-(4-methyl-benzyl)-5-oxo-4-propyl-4,5-dihydro-1H-1,2,4-triazol-3-yl]-ethyl ester], the results for the EC50 on Gal-4 hPPARα, at Gal-4 hPPARγ and on Gal-4 hPPARβ/δ were 1 to 50 nM, above 1000 nM and above 1000 nM, respectively. Besides, the “HLMs t1/2 (min)” value in data set [1] was “Stable”. For the same compound, the half-life at 4.9 µM with pig liver esterase (setting [2]) and with pig liver esterase (setting [3]) was above 2 h in each case.
